Measurements as given in patent US20100204203A1, “Chemical Compounds 637: Pyridopyrimidinediones as PDE4 Inhibitors” (priority 2007, published 2010).

Biological target: recombinant Human Phosphodiesterase B2 (PDE4B2) (Homo sapiens, UniProt Q07343)
Experiment: Human Phosphodiesterase B2 Radiometric Assay (yttrium silicate SPA beads, [3H]cyclic AMP)
Assay type: biochemical
Conditions: recombinant human PDE4B2, radiometric SPA assay, 8 nM [3H]cyclic AMP; read-out: PDE4B2 pIC50 (converted)
Outline: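 Compounds were preincubated 30 min at 30 °C with 0.1 mg/mL PDE4B2 in 50 mM HEPES pH 7.5, 8.3 mM MgCl2, 1.7 mM EGTA, 0.01% Brij 35. Then 8 nM [3H]cAMP was added for 20 min, stopped with yttrium silicate SPA beads plus 18 mM ZnSO4 capturing product 5′AMP; pIC50 by curve fitting.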

Chain of recombinant Human Phosphodiesterase B2 (PDE4B2) (Q07343 1-564 isoform Q07343-2): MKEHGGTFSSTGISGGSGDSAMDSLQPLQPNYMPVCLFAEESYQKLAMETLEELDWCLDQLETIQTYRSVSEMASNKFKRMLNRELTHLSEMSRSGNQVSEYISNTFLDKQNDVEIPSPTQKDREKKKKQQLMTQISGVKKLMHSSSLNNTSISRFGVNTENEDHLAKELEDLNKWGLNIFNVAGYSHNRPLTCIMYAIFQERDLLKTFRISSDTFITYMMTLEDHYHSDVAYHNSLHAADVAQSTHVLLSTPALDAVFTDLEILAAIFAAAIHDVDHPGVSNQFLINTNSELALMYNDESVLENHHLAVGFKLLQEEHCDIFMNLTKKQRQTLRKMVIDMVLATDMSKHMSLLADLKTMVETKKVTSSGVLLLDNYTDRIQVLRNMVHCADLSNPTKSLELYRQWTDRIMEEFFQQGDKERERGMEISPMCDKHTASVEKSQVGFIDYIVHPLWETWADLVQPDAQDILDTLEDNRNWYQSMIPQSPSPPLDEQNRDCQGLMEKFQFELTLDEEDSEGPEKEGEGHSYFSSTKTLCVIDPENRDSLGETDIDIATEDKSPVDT

Structure (SMILES)	IC50 [nM]
CN(Cc1cc(O)ccc1-c1cccc(-n2c(=O)n([C@H]3CC[C@@H](NCc4cn5cc(F)ccc5n4)CC3)c(=O)c3cc(F)cnc32)c1)CC1(O)CC1 [Example 322, 6-fluoro-3-(cis-4-{[(6-fluoroimidazo[1,2-c]pyridin-2-yl)methyl]amino}cyclohexyl)-1-(4′-hydroxy-2′-{[[(1-hydroxycyclopropyl)methyl](methyl)amino]methyl}biphenyl-3-yl)pyrido[2,3-d]pyrimidine-2,4(1H,3H)-dione]	0.251
CN(Cc1cc(O)ccc1-c1cccc(-n2c(=O)n([C@H]3CC[C@@H](NCc4cn5cc(F)ccc5n4)CC3)c(=O)c3cc(F)cnc32)c1)C1CC1 [Example 323, 1-(2′-{[cyclopropyl(methyl)amino]methyl}-4′-hydroxybiphenyl-3-yl)-6-fluoro-3-(cis-4-{[(6-fluoroimidazo[1,2-a]pyridin-2-yl)methyl]amino}cyclohexyl)pyrido[2,3-d]pyrimidine-2,4(1H,3H)-dione]	0.251
C[C@@H](CO)N(C)Cc1cc(O)ccc1-c1cccc(-n2c(=O)n([C@H]3CC[C@@H](NCc4cn5cc(F)ccc5n4)CC3)c(=O)c3cc(F)cnc32)c1 [Example 324, 6-fluoro-3-(cis-4-{[(6-fluoroimidazo[1,2-a]pyridin-2-yl)methyl]amino}cyclohexyl)-1-(4′-hydroxy-2′-{[[(1S)-2-hydroxy-1-methylethyl](methyl)amino]methyl}biphenyl-3-yl)pyrido[2,3-d]pyrimidine-2,4(1H,3H)-dione]	0.501
CN(Cc1cc(O)ccc1-c1cccc(-n2c(=O)n([C@H]3CC[C@@H](NCc4cn5cc(F)ccc5n4)CC3)c(=O)c3cc(F)cnc32)c1)CC1CC1 [Example 325]	2
COCCN(C)Cc1cc(O)ccc1-c1cccc(-n2c(=O)n([C@H]3CC[C@@H](NCc4cn5cc(F)ccc5n4)CC3)c(=O)c3cc(F)cnc32)c1 [Example 327, 6-fluoro-3-(cis-4-{[(6-fluoroimidazo[1,2-a]pyridin-2-yl)methyl]amino}cyclohexyl)-1-(4′-hydroxy-2′-{[(2-methoxyethyl)(methyl)amino]methyl}biphenyl-3-yl)pyrido[2,3-d]pyrimidine-2,4(1H,3H)-dione]	0.251
CN(CCO)Cc1cc(O)ccc1-c1cccc(-n2c(=O)n([C@H]3CC[C@@H](NCc4cn5cc(F)ccc5n4)CC3)c(=O)c3cc(F)cnc32)c1 [Example 329, 6-fluoro-3-(cis-4-{[(6-fluoroimidazo[1,2-a]pyridin-2-yl)methyl]amino}cyclohexyl)-1-(4′-hydroxy-2′-{[(2-hydroxyethyl) (methyl)amino]methyl}biphenyl-3-yl)pyrido[2,3-d]pyrimidine-2,4(1H,3H)-dione]	0.126
O=c1c2cc(F)cnc2n(-c2cccc(-c3ccc(O)cc3CN3CCC[C@H]3CO)c2)c(=O)n1[C@H]1CC[C@@H](NCc2cn3cc(F)ccc3n2)CC1 [Example 330, 6-fluoro-3-(cis-4-{[(6-fluoroimidazo[1,2-a]pyridin-2-yl)methyl]amino}cyclohexyl)-1-(4′-hydroxy-2′-{[(2S)-2-(hydroxymethyl)pyrrolidin-1-yl]methyl}biphenyl-3-yl)pyrido[2,3-d]pyrimidine-2,4(1H,3H)-dione]	2.51
O=c1c2cc(F)cnc2n(-c2cccc(-c3ccc(O)cc3CN3CCC[C@@H]3CO)c2)c(=O)n1[C@H]1CC[C@@H](NCc2cn3cc(F)ccc3n2)CC1 [Example 332, 6-fluoro-3-(cis-4-{[(6-fluoroimidazo[1,2-a]pyridin-2-yl)methyl]amino}cyclohexyl)-1-(4′-hydroxy-2′-{[(2R)-2-(hydroxymethyl)pyrrolidin-1-yl]methyl}biphenyl-3-yl)pyrido[2,3-d]pyrimidine-2,4(1H,3H)-dione]	0.0501
O=C(CN1CCCCC1)N[C@H]1CC[C@@H](n2c(=O)c3cc(F)cnc3n(-c3cccc(-c4ccc(O)cc4CN4CCOCC4)c3)c2=O)CC1 [Example 333, N-{cis-4-[6-fluoro-1-[4′-hydroxy-2′-(morpholin-4-ylmethyl)biphenyl-3-yl]-2,4-dioxo-1,4-dihydropyrido[2,3-d]pyrimidin-3(2H)-yl]cyclohexyl}-2-piperidin-1-ylacetamide]	2
O=c1c2cc(F)cnc2n(-c2cccc(-c3ccc(CN4CCCOCC4)cc3)c2)c(=O)n1[C@H]1CC[C@@H](NCc2cn3cc(F)ccc3n2)CC1 [Example 338, 6-fluoro-3-(cis-4-{[(6-fluoroimidazo[1,2-a]pyridin-2-yl)methyl]amino}cyclohexyl)-1-[4′-(1,4-oxazepan-4-ylmethyl)biphenyl-3-yl]pyrido[2,3-d]pyrimidine-2,4(1H,3H)-dione]	0.251
O=c1c2cc(F)cnc2n(-c2cccc(-c3ccc(CN4CCCOCC4)cc3)c2)c(=O)n1[C@H]1CC[C@@H](N(Cc2cn3cc(F)ccc3n2)Cc2cn3cc(F)ccc3n2)CC1 [Example 339, 3-(cis-4-{bis[(6-fluoroimidazo[1,2-a]pyridin-2-yl)methyl]amino}cyclohexyl)-6-fluoro-1-[4′-(1,4-oxazepan-4-ylmethyl)biphenyl-3-yl]pyrido[2,3-d]pyrimidine-2,4(1H,3H)-dione]	0.0398
CCN(CC)CCOc1ccc(CN(C(C)=O)[C@H]2CC[C@@H](n3c(=O)c4cc(F)cnc4n(-c4cccc(-c5ccc(CN6CCN(C(C)C)CC6)cc5)c4)c3=O)CC2)cc1 [Example 340, N-{4-[2-(diethylamino)ethoxy]benzyl}-N-{cis-4-[6-fluoro-1-{4′-[(4-isopropylpiperazin-1-yl)methyl]biphenyl-3-yl}-2,4-dioxo-1,4-dihydropyrido[2,3-d]pyrimidin-3 (2H)-yl]cyclohexyl}acetamide]	1.58
CC(=O)n1cc(CN(Cc2cn(C(C)=O)c3ccccc23)[C@H]2CC[C@@H](n3c(=O)c4cc(F)cnc4n(-c4cccc(-c5ccc(CN6CCN(C(C)C)CC6)cc5)c4)c3=O)CC2)c2ccccc21 [Example 341, 3-(cis-4-{bis[(1-acetyl-1H-indol-3-yl)methyl]amino}cyclohexyl)-6-fluoro-1-{4′-[(4-isopropylpiperazin-1-yl)methyl]biphenyl-3-yl}pyrido[2,3-d]pyrimidine-2,4(1H,3H)-dione]	0.501
CC(C)NCCOc1ccc(-c2cccc(-n3c(=O)n([C@H]4CC[C@@H](NC(=O)c5cn6cc(F)ccc6n5)CC4)c(=O)c4cc(F)cnc43)c2)cc1 [Example 342]	0.0316
CN(C)Cc1ccc(-c2cccc(-n3c(=O)n([C@H]4CC[C@@H](NCc5cn6ccccc6n5)CC4)c(=O)c4cc(F)cnc43)c2)cc1 [Example 343, 1-{4′-[(dimethylamino)methyl]biphenyl-3-yl}-6-fluoro-3-{cis-4-[(imidazo[1,2-a]pyridin-2-ylmethyl)amino]cyclohexyl}pyrido[2,3-d]pyrimidine-2,4(1H,3H)-dione]	2

Continued, values first:

IC50 [nM]	Structure (SMILES)
0.398	O=c1c2cc(F)cnc2n(-c2cccc(-c3ccc(O)cc3CN3CC[C@@H](O)C3)c2)c(=O)n1[C@H]1CC[C@@H](NCc2cn3cc(F)ccc3n2)CC1 [Example 326, 6-fluoro-3-(cis-4-{[(6-fluoroimidazo[1,2-a]pyridin-2-yl)methyl]amino}cyclohexyl)-1-(4′-hydroxy-2′-{[(3R)-3-hydroxypyrrolidin-1-yl]methyl}biphenyl-3-yl)pyrido[2,3-d]pyrimidine-2,4(1H,3H)-dione]
0.01	CC(=O)N1CCN(Cc2cc(O)ccc2-c2cccc(-n3c(=O)n([C@H]4CC[C@@H](NCc5cn6cc(F)ccc6n5)CC4)c(=O)c4cc(F)cnc43)c2)CC1 [Example 328, 1-{2′-[(4-acetylpiperazin-1-yl)methyl]-4′-hydroxybiphenyl-3-yl}-6-fluoro-3-(cis-4-{[(6-fluoroimidazo[1,2-a]pyridin-2-yl)methyl]amino}cyclohexyl)pyrido [2,3-d]pyrimidine-2,4(1H,3H)-dione]
0.398	O=c1c2cc(F)cnc2n(-c2cccc(-c3ccc(O)cc3CN3CC[C@H](O)C3)c2)c(=O)n1[C@H]1CC[C@@H](NCc2cn3cc(F)ccc3n2)CC1 [Example 331, 6-fluoro-3-(cis-4-{[(6-fluoroimidazo[1,2-a]pyridin-2-yl)methyl]amino}cyclohexyl)-1-(4′-hydroxy-2′-{[(3S)-3-hydroxypyrrolidin-1-yl]methyl}biphenyl-3-yl)pyrido[2,3-d]pyrimidine-2,4(1H,3H)-dione]
0.0631	Cc1ccc2nc(CN[C@H]3CC[C@@H](n4c(=O)c5cc(F)cnc5n(-c5cccc(-c6ccc(O)cc6CN6CCOCC6)c5)c4=O)CC3)cn2c1 [Example 334, 6-fluoro-1-[4′-hydroxy-2′-(morpholin-4-ylmethyl)biphenyl-3-yl]-3-(cis-4-{[(6-methylimidazo[1,2-a]pyridin-2-yl)methyl]amino}cyclohexyl)pyrido[2,3-d]pyrimidine-2,4 (1H,3H)-dione]
0.00794	Cc1cccc2nc(CN[C@H]3CC[C@@H](n4c(=O)c5cc(F)cnc5n(-c5cccc(-c6ccc(O)cc6CN6CCOCC6)c5)c4=O)CC3)cn12 [Example 335, 6-fluoro-1-[4′-hydroxy-2′-(morpholin-4-ylmethyl)biphenyl-3-yl]-3-(cis-4-{[(5-methylimidazo[1,2-c]pyridin-2-yl)methyl]amino}cyclohexyl)pyrido[2,3-d]pyrimidine-2,4(1H,3H)-dione]
0.0316	Cc1c(CN[C@H]2CC[C@@H](n3c(=O)c4cc(F)cnc4n(-c4cccc(-c5ccc(O)cc5CN5CCOCC5)c4)c3=O)CC2)nc2ccccn12 [Example 336, 6-fluoro-1-[4′-hydroxy-2′-(morpholin-4-ylmethyl)biphenyl-3-yl]-3-(cis-4-{[(3-methylimidazo[1,2-a]pyridin-2-yl)methyl]amino}cyclohexyl)pyrido[2,3-d]pyrimidine-2,4(1H,3H)-dione]
0.1	O=c1c2cc(F)cnc2n(-c2cccc(-c3cc(O)ccc3CN3CCOCC3)c2)c(=O)n1[C@H]1CC[C@@H](NCc2cn3cc(F)ccc3n2)CC1 [Example 337, 6-fluoro-3-(cis-4-{[(6-fluoroimidazo[1,2-a]pyridin-2-yl)methyl]amino}cyclohexyl)-1-[5′-hydroxy-2′-(morpholin-4-ylmethyl)biphenyl-3-yl]pyrido[2,3-d]pyrimidine-2,4(1H,3H)-dione]
